Reference: US20250289793A1, “MACROCYCLIC INHIBITORS OF ATP CITRATE LYASE” (Esperion Therapeutics, Inc., priority 2022, published 2025)
Where two headings read alike, the source gives them in different places.

Columns and labels:
[1] = biological target: Recombinant human ACLY full length protein (Homo sapiens (Human), UniProt P53396); assay: hACLY ADP-Glo activity assay; type: biochemical; details: 0.5 nM ACLY; 15 μM sodium citrate, 1 μM coenzyme A, 80 μM ATP; ADP formed, luminescence; read-out: ADP-Glo IC50 GMean
Description: Compounds of the disclosure were evaluated for their efficacy in inhibiting hACLY using an ADP-Glo™ assays that measure ADP formed from the enzymatic activity of hACLY.
Test compounds were 3-fold serially diluted in DMSO over 11-point concentration range and dispensed onto a 384-well plate. Recombinant human ACLY full length protein was purified. Concentrations of ACLY protein, sodium citrate, coenzyme A, and ATP in the reaction were optimized for standardized homogenous enzyme assay using ADP-Glo™ Kinase (Promega Inc.). The assay measured ADP formed from the enzymatic reaction.
The reaction buffer consisted of the assay buffer (50 mM HEPES pH 8.0, 10 mM MgCl2, 4 mM 1,4-Dithiothreitol, 0.01% Brij® 35).
ACLY protein (0.5 nM) was added to the prepared reaction buffer, and the mixture was dispensed into the assay plate and incubated for 30 minutes at room temperature. Next, 15 μM sodium citrate, 1 μM coenzyme A, and 80 μM ATP were added into the assay plate and incubated for 60 minutes at room temperature. The final reaction volume for each well was 5 μL.
5 μL of ADP-Glo™ reagent was added, and the mixture was incubated for 40 minutes at room temperature. 10 μl ADP-Glo™ detection reagent was added, and the mixture was incubated for 30 minutes at room temperature. Luminescence was determined using EnVision microplate reader with ultra-luminescence module (Perkin Elmer Inc). Concentration-response curve-fitting and IC50 determination was performed using Xlfit Software (version 5.5.0) with a four-parameter logistic regression fit model.

[2] = biological target: T1, ACLY (Homo sapiens (Human), UniProt P53396); assay: Human ACLY (hACLY) RF/MS activity assay; type: biochemical; details: 1 nM hACLY; 30 min pre-incubation; 15 μM Coenzyme A, 50 μM ATP, 50 μM citrate; CoA to Acetyl-CoA by RF/MS; read-out: RFMS IC50 GMean
Summary of the method: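 RapidFire MS read CoA-to-acetyl-CoA conversion as a substrate/product ratio after 30 min at RT (20° C) with final 15 μM CoA, 50 μM ATP, 50 μM citrate. Before substrate addition, 1 nM enzyme sat 30 min with compound (top 10 μM, two-fold dilutions; 1% DMSO) in pH 8.0 Hepes/MgCl2/NaCl/DTT buffer.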

[3] = biological target: T1, ACLY; assay: InCell Pulse assay (permeate HEK293 cells, bind to and stabilize ACLY); type: cell-based; details: HEK293 cells transfected with pICP-ACLY(FL)-ePL; 1 hour at 37° C., 55° C. heat pulse 10 minutes; read-out: InCell Pulse IC50 GMean
Summary of the method: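 HEK293 cells transiently expressing full-length ACLY-ePL were exposed in OptiMEM to 11-point, 3-fold compound dilutions for 1 h at 37 °C, heat-pulsed 10 min at 55 °C, then lysed for enzyme-fragment complementation luminescence. Four-parameter fit, normalised to 0.5% DMSO and 1 μM NDI-094311.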

Recombinant human ACLY full length protein, sequence (P53396 whole entry): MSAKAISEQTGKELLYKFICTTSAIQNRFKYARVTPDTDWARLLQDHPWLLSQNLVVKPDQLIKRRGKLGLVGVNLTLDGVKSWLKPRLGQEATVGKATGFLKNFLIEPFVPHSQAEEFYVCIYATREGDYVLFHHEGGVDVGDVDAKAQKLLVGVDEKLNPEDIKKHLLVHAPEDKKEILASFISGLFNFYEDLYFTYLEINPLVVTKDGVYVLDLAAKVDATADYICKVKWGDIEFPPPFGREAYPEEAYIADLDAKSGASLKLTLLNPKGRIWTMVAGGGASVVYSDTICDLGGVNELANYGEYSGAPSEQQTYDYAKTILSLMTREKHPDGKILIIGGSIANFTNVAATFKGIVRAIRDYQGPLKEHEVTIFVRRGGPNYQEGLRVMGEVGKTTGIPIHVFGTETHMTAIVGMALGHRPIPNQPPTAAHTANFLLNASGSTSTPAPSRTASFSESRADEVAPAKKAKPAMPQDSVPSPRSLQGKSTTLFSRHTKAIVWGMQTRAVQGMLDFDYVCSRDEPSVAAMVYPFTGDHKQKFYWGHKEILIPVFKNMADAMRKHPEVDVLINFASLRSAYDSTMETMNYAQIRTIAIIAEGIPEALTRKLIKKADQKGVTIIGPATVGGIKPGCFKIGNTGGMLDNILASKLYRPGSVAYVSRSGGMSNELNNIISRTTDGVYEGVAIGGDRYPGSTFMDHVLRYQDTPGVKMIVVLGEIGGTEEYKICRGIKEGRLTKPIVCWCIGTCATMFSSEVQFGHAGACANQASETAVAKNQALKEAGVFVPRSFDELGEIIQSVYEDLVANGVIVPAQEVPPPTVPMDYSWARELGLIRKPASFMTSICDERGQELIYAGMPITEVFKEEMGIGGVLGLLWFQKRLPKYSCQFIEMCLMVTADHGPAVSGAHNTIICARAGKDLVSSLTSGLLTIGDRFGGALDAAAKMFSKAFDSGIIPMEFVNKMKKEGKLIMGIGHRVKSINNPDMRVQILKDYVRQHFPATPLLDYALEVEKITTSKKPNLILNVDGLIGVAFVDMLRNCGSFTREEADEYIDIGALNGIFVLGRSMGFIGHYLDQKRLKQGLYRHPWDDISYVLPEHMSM
T1 sequence (P53396 whole entry): as above

**Q.** With `COc1c(Cl)cc2cc1S(=O)(=O)Nc1cc(c(F)cc1F)-c1cccc3c1OC(COC2=O)C3` (stereo not shown) as the molecule, how does the ring closure, isolated yield (from COc1c(Cl)cc(C(=O)O)cc1S(=O)(=O)Nc1cc(-c2cccc3c2OC(CO)C3)c(F)cc1F, ester bond, 15-membered ring, DCC/DMAP, DCM, 29.5 mM, 25.0 °C, 2.0 h) read?
**A.** 70%

**Q.** Which ring closure, isolated yield (from COc1c(Cl)cc(C(=O)O)cc1S(=O)(=O)Nc1cc(-c2ccccc2C(C)CCO)c(F)cc1F, ester bond, 15-membered ring, DCC/DMAP, DCM, 19.8 mM, 25.0 °C, 2.0 h) does the source give for `COc1c(Cl)cc2cc1S(=O)(=O)Nc1cc(c(F)cc1F)-c1ccccc1C(C)CCOC2=O` (stereo not shown) here?
**A.** 72%

**Q.** For `COc1c(Cl)cc2cc1S(=O)(=O)Nc1cc(c(F)cc1F)-c1ccccc1COC(=O)C2`, which ring closure, isolated yield (from COc1c(Cl)cc(CC(=O)O)cc1S(=O)(=O)Nc1cc(-c2ccccc2CO)c(F)cc1F, ester bond, 14-membered ring, DCC/DMAP, DCM, 12.7 mM, 3.0 h) is on record?
**A.** 19%

**Q.** With `COc1c(Cl)cc2cc1S(=O)(=O)Nc1cc(c(F)cc1F)-c1ccccc1COC2=O` as the molecule, how does the ring closure, isolated yield (from COc1c(Cl)cc(C(=O)O)cc1S(=O)(=O)Nc1cc(-c2ccccc2CO)c(F)cc1F, ester bond, 13-membered ring, DCC/DMAP, DCM, 21.8 mM, 26.5 h) read?
**A.** 43%

**Q.** Which ring closure, isolated yield (from 3-chloro-5-[[2,4-difluoro-5-[2-[3-(hydroxymethyl)229azetidine-1-yl]phenyl]phenyl]sulfamoyl]-4-methoxybenzoic acid, ester bond, 16-membered ring, DCC/DMAP, DCM, 25.0 mM) does the source give for `COc1c(Cl)cc2cc1S(=O)(=O)Nc1cc(c(F)cc1F)-c1ccccc1N1CC(COC2=O)C1` here?
**A.** 60%

**Q.** For `COc1c(Cl)cc2cc1S(=O)(=O)Nc1cc(c(F)cc1F)Oc1cccc(c1)COC2=O`, which ring closure, isolated yield (from COc1c(Cl)cc(C(=O)O)cc1S(=O)(=O)Nc1cc(Oc2cccc(CO)c2)c(F)cc1F, ester bond, 15-membered ring, DCC/DMAP, DCM, 19.8 mM, 3.0 h) is on record?
**A.** 72%

**Q.** Which ring closure, isolated yield (from COc1c(Cl)cc(C(=O)O)cc1S(=O)(=O)Nc1cc(-c2ccccc2OCCO)ccc1C(F)(F)F, ester bond, 15-membered ring, DCC/DMAP, DCM, 16.8 mM, 25.0 °C, 1.0 h) does the source give for `COc1c(Cl)cc2cc1S(=O)(=O)Nc1cc(ccc1C(F)(F)F)-c1ccccc1OCCOC2=O` here?
**A.** 42%

**Q.** For `COc1c(Cl)cc2cc1S(=O)(=O)Nc1cc(ccc1F)-c1ccccc1CCCOC2`, which ring closure, isolated yield (from COc1c(Cl)cc(CBr)cc1S(=O)(=O)Nc1cc(-c2ccccc2CCCO)ccc1F, ether bond, 15-membered ring, NaH, THF, 13.0 mM, 50.0 °C, 2.0 h) is on record?
**A.** 46%

**Q.** Which ring closure, isolated yield (from COc1c(Cl)cc(CBr)cc1S(=O)(=O)Nc1cc(-c2ccccc2CCO)ccc1F, ether bond, 14-membered ring, NaH, THF, 12.7 mM, 50.0 °C, 2.5 h) does the source give for `COc1c(Cl)cc2cc1S(=O)(=O)Nc1cc(ccc1F)-c1ccccc1CCOC2` here?
**A.** 78%

**Q.** With `COc1c(Cl)cc2cc1S(=O)(=O)Nc1cc(ccc1F)N1CCC[C@@H]1CCOC2=O` as the molecule, how does the ring closure, isolated yield (from 3-chloro-5-[[2-fluoro-5-[(2R)-2-(2-hydroxyethyl)221pyrrolidine-1-yl]phenyl]sulfamoyl]-4-methoxybenzoic acid, ester bond, 14-membered ring, DCC/DMAP, DCM, 26.0 mM) read?
**A.** 77%

**Q.** For `COc1ccc2cc1C(=O)N1CCc3cc(F)c(cc31)-c1ccccc1OCCNC2=O`, which ring closure, isolated yield (from 3-[6-[2-(2-aminoethoxy)phenyl]-5-fluoro-indoline-1-carbonyl]-4-methoxybenzoic acid·HCl, amide bond, 15-membered ring, T3P/DIPEA, DMF, 11.6 mM) is on record?
**A.** 24%

**Q.** With `O=C1OCCOc2ccccc2-c2cc(c(F)cc2F)NS(=O)(=O)c2cc1cc(Cl)c2C(F)F` as the molecule, how does the ring closure, isolated yield (from O=C(O)c1cc(Cl)c(C(F)F)c(S(=O)(=O)Nc2cc(-c3ccccc3OCCO)c(F)cc2F)c1, ester bond, 15-membered ring, DCC/DMAP, DCM, 33.0 mM, 25.0 °C, 1.5 h) read?
**A.** 53%

**Q.** For `COc1c(Cl)cc2cc1S(=O)(=O)Nc1cc(c(F)cc1F)-c1ccccc1OCCNC2=O` [Compound 1, 15-chloro-21,23-difluoro-16-methoxy-8-oxa-18lambda6-thia-11,19-diazatetracyclo[18.3.1.1^13,17.0^2,7]pentacosa-1(24),2,4,6,13,15,17(25),20,22-nonaene-12,18,18-trione], which IC50 [1] is on record?
**A.** ≥ 1000 nM

**Q.** And the ring closure, isolated yield (amide bond, 15-membered ring, T3P/DIPEA, EtOAc/DMF, 4.9 mM)?
**A.** 72%

**Q.** What does the source list for `O=C1NCCOc2cccc(c2)-c2cc(c(F)cc2F)NS(=O)(=O)c2cc1cc(Cl)c2O` [Compound 3, 11-chloro-3,5-difluoro-10-hydroxy-18-oxa-8lambda6-thia-7,15-diazatetracyclo[17.3.1.1^2,6.1^9,13]pentacosa-1(22),2(25),3,5,9(24),10,12,19(23),20-nonaene-8,8,14-trione]?
**A.** IC50 [1]: 10 to 1000 nM; IC50 [2]: 100 to 10000 nM; IC50 [3]: ≥ 50000 nM

**Q.** For `O=C1NCCCOc2cccc(c2)-c2cc(c(F)cc2F)NS(=O)(=O)c2cc1cc(Cl)c2O` [Compound 5, 11-chloro-3,5-difluoro-10-hydroxy-19-oxa-8lambda6-thia-7,15-diazatetracyclo[18.3.1.1^2,6.1^9,13]hexacosa-1(23),2(26),3,5,9(25),10,12,20(24),21-nonaene-8,8,14-trione], which IC50 [1] is on record?
**A.** 10 to 1000 nM

**Q.** What about the IC50 [2] of the same molecule?
**A.** 100 to 10000 nM

**Q.** What about the IC50 [3] of the same molecule?
**A.** ≥ 50000 nM

**Q.** Which IC50 [1] does the source give for `C[C@@H]1COc2ccccc2-c2cc(c(F)cc2F)NS(=O)(=O)c2cc(cc(Cl)c2O)C(=O)N1` [Compound 19, (10R)-15-chloro-21,23-difluoro-16-hydroxy-10-methyl-8-oxa-18lambda6-thia-11,19-diazatetracyclo[18.3.1.1^13,17.0^2,7]pentacosa-1(24),2,4,6,13,15,17(25),20,22-nonaene-12,18,18-trione] here?
**A.** 10 to 1000 nM

**Q.** What about the IC50 [2] of the same molecule?
**A.** 100 to 10000 nM

**Q.** And the IC50 [3]?
**A.** ≥ 50000 nM

**Q.** Which IC50 [1] does the source give for `O=C1OCCCOc2ccccc2-c2cc(c(F)cc2F)NS(=O)(=O)c2cc1cc(Cl)c2O` [Compound 20, 16-chloro-22,24-difluoro-17-hydroxy-8,12-dioxa-19lambda6-thia-20-azatetracyclo[19.3.1.1^14,18.0^2,7]hexacosa-1(25),2,4,6,14,16,18(26),21,23-nonaene-13,19,19-trione] here?
**A.** < 1 nM

**Q.** What about the IC50 [2] of the same molecule?
**A.** < 20 nM

**Q.** What about the IC50 [3] of the same molecule?
**A.** 300 to 1000 nM

**Q.** What does the source list for `O=C1c2cc(Cl)c(O)c(c2)S(=O)(=O)Nc2cc(c(F)cc2F)-c2cccc3c2CN1C3` [Compound 89, 13-chloro-19,21-difluoro-14-hydroxy-16,16-dioxo-16λ6-thia-9,17-diazapentacyclo[16.3.1.16,9.111,15.02,7]tetracosa-1(21),2(7),3,5,11,13,15(23),18(22),19-nonaen-10-one]?
**A.** IC50 [2]: 100 to 10000 nM; IC50 [3]: ≥ 50000 nM

**Q.** Which IC50 [2] does the source give for `O=C1NCc2ncccc2-c2cc(c(F)cc2F)NS(=O)(=O)c2cc1cc(Cl)c2O` [Compound 90, 13-chloro-19,21-difluoro-14-hydroxy-16,16-dioxo-16λ6-thia-6,9,17-triazatetracyclo[16.3.1.111,15.02,7]tricosa-1(22),2,4,6,11,13,15(23),18,20-nonaen-10-one] here?
**A.** 100 to 10000 nM

**Q.** What about the IC50 [3] of the same molecule?
**A.** ≥ 50000 nM

**Q.** Which results are given for `CN1Cc2ccccc2-c2cc(c(F)cc2F)NS(=O)(=O)c2cc(cc(Cl)c2O)C1=O` [Compound 91, 13-chloro-19,21-difluoro-14-hydroxy-9-methyl-16,16-dioxo-16λ6-thia-9,17-diazatetracyclo[16.3.1.111,15.02,7]tricosa-1(22),2,4,6,11(23),12,14,18,20-nonaen-10-one]?
**A.** IC50 [2]: 100 to 10000 nM; IC50 [3]: ≥ 50000 nM

**Q.** Which results are given for `O=S1(=O)Nc2cc(ccc2F)-c2ccccc2CCCOCc2cc(Cl)c(O)c1c2` [Compound 92, 15-chloro-21-fluoro-18,18-dioxo-11-oxa-18λ6-thia-19-azatetracyclo[18.3.1.113,17.02,7]pentacosa-1(24),2,4,6,13,15,17(25),20,22-nonaen-16-ol]?
**A.** IC50 [2]: 100 to 10000 nM; IC50 [3]: 1000 to 50000 nM
